According to patent publication US20250130239A1, “PROTEIN DEGRADER” (University of Dundee, priority 2021, published 2025):
Like-named read-outs stand apart in the source and are kept apart here.

Columns and labels:
[1] = target: T1, BromoTag-Brd2 (Homo sapiens, UniProt O60885+P40337, L387A); assay: Dose-response degradation assay (western blot, 6 h) in heterozygous BromoTag-Brd2 HEK293 cells; assay type: cell-based; settings: for pDC50: second-generation B&H-PROTACs (diastereomeric mixtures), mean (±S.E) of three experiments; for hook effect: at the higher concentrations used, 1-10 μM
T1 construct: comprising residues 368-440 of human Brd4; Brd2 (endogenous protein, fusion partner in the same polypeptide); eGFP-P2A (upstream marker in the knock-in cassette) (N, cleaved yes); expressed in transfected cells; host or cells: HEK293, heterozygous CRISPR knock-in at the endogenous BRD2 locus
Protocol: Dose-response Degradation Assays. All dose-response degradation assays were performed on the genotype verified heterozygous BromoTag-Brd2 HEK293 cell line. Heterozygous BromoTag-Brd2 HEK293 cells were plated at a density of 5×10^5 cells per well of a six healthy plate a day before initiation of the titration experiment. PROTAC compounds were dissolved in DMSO at a concentration of 10 mM, from these stock concentrations, PROTAC compounds were diluted to appropriate concentrations using DMSO in the range of 10 μM-1 nM. […] Control compounds such as MZ1, cis-MZ1 were similarly dissolved in DMSO to the appropriate concentration. […] Cells were washed twice with PBS before being harvested.
Western Blotting. […] The membranes were blocked for 1 h prior to incubation with the primary antibodies using 5% Milk TBST. […] Following overnight incubation with the primary antibodies at 4° C., the membranes were incubated with secondary antibodies (Anti-rabbit, Abcam AB216773, 1:5000 or anti-mouse, Abcam AB216774, 1:5000) and hFAB™ Rhodamine Anti-Tubulin Antibody (Biorad, 12004165, 1:10000) for one h and then imaged with a Bio-Rad imager (LI-COR Biosciences). All western blots were analysed for band intensities using Image Lab from Bio-Rad (LI-COR, Biosciences). The data extracted from these blots were then plotted and analysed using Prism (v. 8.2.0, GraphPad).

[2] = system: untagged Brd2 and endogenous Brd3 and Brd4; assay: Off-target degradation of endogenous BET proteins (western blot) in BromoTag-Brd2 HEK293 cells; assay type: cell-based, human; settings: 1 nM to 10 μM; 6 h
Protocol: Dose-response Degradation Assays. All dose-response degradation assays were performed on the genotype verified heterozygous BromoTag-Brd2 HEK293 cell line. Heterozygous BromoTag-Brd2 HEK293 cells were plated at a density of 5×10^5 cells per well of a six healthy plate a day before initiation of the titration experiment. PROTAC compounds were dissolved in DMSO at a concentration of 10 mM, from these stock concentrations, PROTAC compounds were diluted to appropriate concentrations using DMSO in the range of 10 μM-1 nM. The compounds were then added to a 2 mL of DMEM (Invitrogen, Carlsebad, CA, USA) supplemented with 10% (v/v) Fetal bovine serum (FBS) (Thermo Fisher, Waltham, MA, USA) and 1% (v/v) penicillin/streptomycin (pen/strep) (#15140122, Thermo Fisher, Waltham, MA, USA) and added to the cells at initiation of the experiment. Control compounds such as MZ1, cis-MZ1 were similarly dissolved in DMSO to the appropriate concentration. All titration experiment were performed for a total of 6 hours prior to being harvested and were kept at 37° C., 5% CO2, and 95% humidity once treatment was applied until right before harvesting. Cells were washed twice with PBS before being harvested.
Western Blotting. […] Total protein quantity was determined using the BCA protein assay (#23225, Pierce, Rockford, Illinois). Protein concentration was determined using the BCA assay (ThermoFisher Scientific, 23225). […] All western blots were analysed for band intensities using Image Lab from Bio-Rad (LI-COR, Biosciences). The data extracted from these blots were then plotted and analysed using Prism (v. 8.2.0, GraphPad).
Development of a Knock-in Cell Line with BromoTag fused to endogenous Brd2 using CRISPR. […] To this end, the endogenous BET family protein Brd2 was chosen as a model target, due to the availability of well-established antibody for Brd2 detection, and expression of a single protein isoform as well detected band in the western blot (Filippakopoulos, P.; Knapp, S., Nat Rev Drug Discov. 2014, 13 (5), 337-356). […]

[3] = Ab: Brd2, second-generation B&H-PROTACs, 6 h
[4] = Ab: Brd4^BD2 L387A, second-generation B&H-PROTACs, 6 h
[5] = 6 h, range over the two antibodies

T1 sequence (P40337 whole entry, other chains not shown, the tested form may be a part): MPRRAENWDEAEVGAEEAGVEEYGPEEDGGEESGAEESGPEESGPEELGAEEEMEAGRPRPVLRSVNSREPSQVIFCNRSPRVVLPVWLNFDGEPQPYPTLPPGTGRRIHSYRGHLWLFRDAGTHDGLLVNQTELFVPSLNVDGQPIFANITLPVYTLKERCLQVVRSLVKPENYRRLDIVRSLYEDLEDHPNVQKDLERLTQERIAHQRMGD

Structure (SMILES)	DC50 ([1]; 6 h) [nM]	Dmax, BromoTag-Brd2 ([1]; 6 h) [%]	pDC50 ([1]; Ab: Brd2, 6 h)	Dmax (%) [1, 3] [%]	pDC50 ([1]; Ab: Brd4^BD2 L387A, 6 h)	Dmax (%) [1, 4] [%]	hook effect ([1]; 6 h)	off-target degradation of untagged Brd2 or the other endogenous BET proteins [2]	DC50 [1, 5] [nM]	Dmax ([1]; HEK293, Ab: Brd4^BD2 L387A, second-generation B&H-PROTACs, 6 h) [%]	Dmax ([1]; HEK293, read-out: Dmax, BromoTag-Brd2, 6 h) [%]
CC[C@@H](C(=O)NCCOCCCOCC(=O)N[C@H](C(=O)N1C[C@H](O)C[C@H]1C(=O)N[C@@H](C)c1ccc(-c2scnc2C)cc1)C(C)(C)C)[C@@H]1N=C(c2ccc(Cl)cc2)c2c(sc(C)c2C)-n2c(C)nnc21 (relative stereo) [ET-ARV-771 (21), (2S,4R)-1-((2S,15R*)-(tert-butyl)-15-((S*)-4-(4-chlorophenyl)-2,3,9-trimethyl-6H-thieno[3,2-f][1,2,4]triazolo[4,3-a][1,4]diazepin-6-yl)-4,14-dioxo-6,10-dioxa-3,13-diazaheptadecanoyl)-4-hydroxy-N—((S)-1-(4-(4-methylthiazol-5-yl)phenyl)ethyl)pyrrolidine-2-carboxamide]	~1000	< 70	5.7 ± 1.8	51	6.1 ± 0.3	69	strong hook effect	–	–	–	–
CC[C@@H](C(=O)NCCOCCOCCOCC(=O)N[C@H](C(=O)N1C[C@H](O)C[C@H]1C(=O)NCc1ccc(-c2scnc2C)cc1)C(C)(C)C)[C@@H]1N=C(c2ccc(Cl)cc2)c2c(sc(C)c2C)-n2c(C)nnc21 (relative stereo) [ET-MZ1 (19), (2S,4R)-1-((2S,17R*)-(tert-butyl)-17-((S*)-4-(4-chlorophenyl)-2,3,9-trimethyl-6H-thieno[3,2-f][1,2,4]triazolo[4,3-a][1,4]diazepin-6-yl)-4,16-dioxo-6,9,12-trioxa-3,15-diazanonadecanoyl)-4-hydroxy-N-(4-(4-methylthiazol-5-yl)benzyl)pyrrolidine-2-carboxamide]	–	–	–	–	–	–	–	no observable off-target degradation	–	–	–
CC[C@@H](C(=O)OCCOCCOCCOCC(=O)N[C@H](C(=O)N1C[C@H](O)C[C@H]1C(=O)NCc1ccc(-c2scnc2C)cc1)C(C)(C)C)[C@@H]1N=C(c2ccc(Cl)cc2)c2c(sc(C)c2C)-n2c(C)nnc21 (relative stereo) [ET-OMZ1 (23), (S)-13-((2S,4R)-4-hydroxy-2-((4-(4-methylthiazol-5-yl)benzyl)carbamoyl)pyrrolidine-1-carbonyl)-14,14-dimethyl-11-oxo-3,6,9-trioxa-12-azapentadecyl (R*)-2-((S*)-4-(4-chlorophenyl)-2,3,9-trimethyl-6H-thieno[3,2-f][1,2,4]triazolo[4,3-a][1,4]diazepin-6-yl)butanoate]	–	–	7.9 ± 0.2	–	7.1	–	strong onset of the hook effect	no observable off-target degradation	13 to 80	90	> 75
Cc1ncsc1-c1ccc([C@H](C)NC(=O)[C@@H]2C[C@@H](O)CN2C(=O)[C@@H](NC(=O)COCCCOCCNC(=O)[C@H](C)[C@@H]2N=C(c3ccc(Cl)cc3)c3c(sc(C)c3C)-n3c(C)nnc32)C(C)(C)C)cc1 (relative stereo) [ME-ARV-771 (20), (2S,4R)-1-((2S,15R*)-(tert-butyl)-15-((S*)-4-(4-chlorophenyl)-2,3,9-trimethyl-6H-thieno[3,2-f][1,2,4]triazolo[4,3-a][1,4]diazepin-6-yl)-4,14-dioxo-6,10-dioxa-3,13-diazahexadecanoyl)-4-hydroxy-N—((S)-1-(4-(4-methylthiazol-5-yl)phenyl)ethyl)pyrrolidine-2-carboxamide]	–	–	6.4 ± 0.6	60	6.5 ± 0.4	70	–	–	320 to 400	–	–
